Assay results as given in EP4703362A1 (Chengdu Sibeibo Pharmaceutical Technology Co., Ltd, priority 2023, dated 2024).
pKi: −log10 of the molar value. Like-named read-outs stand apart in the source and are kept apart here.

Tests used:
[1] = stability test in liver microsomes (rat); type: in vitro ADME
Description: (§1) The stability of the compound of the present invention in liver microsomes of rat, monkey and human was determined. Tested compounds of the present invention were the compounds in Examples 6, 8 and 29, and a control drug was Zavegepant.
(§2) 3.2 An appropriate amount of liver microsome solution was transferred into a 1 mL 96-deep-well plate, added with a tested drug liquid (or a probe substrate solution), and pre-incubated in a thermal mixer at 37°C for 5 minutes. Two parts of mixed solutions were taken out from the system and added with 1×PBS to replace NADPH, and the mixed solutions were taken out at 0 and 60 minutes respectively, and added with methanol (containing an internal standard) to terminate the reaction. In the remaining mixed system, each well was added with NADPH to start the reaction. In the tested substance group, mixed solutions were taken out from the system at 0, 5, 15, 30, 45 and 60 minutes, and in the control group, mixed solutions were taken out from the system at 0, 30 and 60 minutes, and the mixed solutions were added methanol (containing an internal standard) to terminate the reaction. All samples of the terminated reaction were mixed evenly and centrifuged in a centrifuge at 3800 rpm for 15 minutes, and the supernatant was taken for LC-MS/MS analysis.
(§3) A peak area was determined by an extracted ion chromatogram. A slope value k was determined by linear regression of a remaining percentage of a parent drug relative to a natural logarithm of an incubation time curve. According to the slope, in-vitro half-life periods (t1/2) were respectively calculated, and in-vitro intrinsic clearance rates (CLint, represented by µL/min/mg protein) were calculated. Calculation formulas were as follows: t1/2 = ln2/k = 0.693/k; and CLint = 0.693/t1/2 /liver microsome protein concentration [formula]

[2] = stability test in liver microsomes (monkey); type: in vitro ADME
Description: as §1, §2, §3

[3] = stability test in liver microsomes (human); type: in vitro ADME
Description: as §1, §2, §3

[4] = plasma protein binding rate test, equilibrium dialysis (rat); type: in vitro ADME, SD rat; conditions: 1 µM, 6 hours, 37°C
Description: (§4) Protein binding rates of the compound of the present invention in plasma of rat, monkey and human were determined by an equilibrium dialysis method. Tested compounds of the present invention were the compounds in Examples 6, 8 and 29, and a control drug was Zavegepant.
(§5) 3.1 A dry dialysis membrane was rinsed with ultrapure water for 2-3 times, and then soaked in a phosphate buffer for 1 hour for later use. Polytetrafluoroethylene module was soaked in 20% ethanol for 30 minutes, and then surface moisture was dried with dust-free paper for later use. The pretreated dialysis membrane was assembled into a dialysis plate according to the product specification, and one side (receptor compartment) of an osmotic membrane in each dialysis well was added with 100 µL of receptor fluid (100 mM phosphate buffer solution plus 0.002% Tween 80).
(§6) 3.2 The plasma was put into a centrifuge tube, a working solution of a tested substance was added into the plasma, wherein a final concentration was 1 µM, and the mixture was turned upside down and mixed evenly (this step was carried out in ice bath). 20 µL of drug-containing plasma each was taken, and was respectively transferred to a 96-well sample plate according to two parts in parallel, and stored in a refrigerator at -20°C as a T0 sample.
(§7) 3.3 Another 100 µL of the above drug-containing plasma was transferred to the other side (sample compartment) of the membrane in the dialysis device according to two parts in parallel, and incubated under vibration at a constant temperature of 37°C for 6 hours. After 6 hours of incubation, 20 µL of the plasma was respectively taken out from the receptor compartment and the sample compartment after equilibration to obtain samples B and A. The samples B and A were respectively added with corresponding volumes of corresponding blank plasma or phosphate buffer solution (containing 0.002% Tween 80), so that a volume ratio of the plasma to the buffer solution in each sample well was 1: 1.
(§8) 3.4 All sample wells were added with 250 µL of methanol solution containing an internal standard, mixed evenly and then centrifuged in a centrifuge at 3800 rpm for 10 minutes. […]
(§9) A plasma protein binding rate and a recovery rate of the compound in plasma were calculated by the following formulas: dissociation percentage (%) = CB /CA; [formula] plasma protein binding rate (fb%) = 1−dissociation percentage (%); [formula] recovery rate (%) = (CB+CA)/CT0 [formula] wherein CB was a concentration of the compound in the receptor fluid after equilibrium dialysis; CA was a concentration of the compound in the drug-containing plasma after equilibrium dialysis; and CT0 was an initial concentration of the compound in plasma.

[5] = plasma protein binding rate test, equilibrium dialysis (monkey); type: in vitro ADME, cynomolgus monkey; conditions: 1 µM, 6 hours, 37°C
Description: as §4, §5, §6, §7, §8, §9

[6] = plasma protein binding rate test, equilibrium dialysis (human); type: in vitro ADME; conditions: 1 µM, 6 hours, 37°C
Description: as §4, §5, §6, §7, §8, §9

[7] = in-vivo pharmacokinetic study on SD rats, intravenous and intranasal administration; conditions: for AUC / bioavailability / half-life / Vd / Cmax: rat, plasma; for AUC: read-out: Area under curve AUC; for bioavailability: read-out: Bioavailability F%; for half-life: read-out: Half-life period t1/2 (converted); for Vd: read-out: Volume of distribution steady-state Vss; for Cmax: read-out: Concentration to peak Cmax
Description: Species: SD rats, male, SPF level.
2.1 An appropriate amount of drug was accurately weighed and added with 50 mM succinate buffer (diluted with D5W, pH=5-6), and mixed evenly and dissolved fully in an ultrasonic and vortexed mode to obtain a 0.2 mg/mL drug solution for intravenous (IV) administration.
2.2 An appropriate amount of drug was accurately weighed and added with 50 mM succinate buffer (diluted with pure water, pH=5-6), and mixed evenly and dissolved fully in an ultrasonic and vortexed mode to obtain a 10 mg/mL drug solution for intranasal (IN) administration.
5 minutes, 10 minutes, 15 minutes, 0.5 hour, 1 hour, 2 hours, 4 hours, 8 hours and 24 hours after administration.
Blood was collected through a jugular vein, about 0.2 mL of each sample was collected, EDTA-K2 was used for anticoagulation, the collected blood sample was placed on ice, and plasma was centrifugally separated within 2 hours (at 6000 g and 2-8°C for 5 minutes). The collected plasma samples were stored in a refrigerator at -80°C before analysis, and the remaining plasma samples after analysis were continuously stored in the refrigerator at -80°C for temporary storage.
A concentration of a specified compound in plasma was determined by an LC-MS/MS method, and main pharmacokinetic parameters were calculated by a Winnolin 8.3 non-compartmental model.

[8] = test system: capsaicin-induced change of blood flow in forearm skin of cynomolgus monkeys; test: in-vivo pharmacodynamic study, capsaicin-induced change of blood flow in forearm skin; conditions: 0.05 mg/kg IV, 10 minutes after capsaicin treatment
Description: • 2.1Animal information: Species and strain: cynomolgus monkeys, male (5-8 kg), animal license: SYXK(Su)2019-0004, depilated 3 days before the experiment. • 2.2Preparation of test sample: An appropriate amount of drug was accurately weighed and dissolved in sterile saline solution, and mixed evenly and dissolved fully in an ultrasonic and vortexed mode to obtain a 0.05 mg/ml drug solution for intravenous (IV) administration. • 2.3In a pre-test stage, a blood flow in a forearm of an anesthetized animal was scanned by a blood flow meter, and an O-shaped rubber ring was placed on an inner side of the arm, avoiding obvious blood vessels.

CGRP receptor = target: T1, CGRP receptor (Homo sapiens, UniProt O60894+Q16602); test: Competitive binding determination of in-vitro [125I] CGRP; conditions: competition with 125I-CGRP (Human) 200 pM, SK-N-MC cell membrane
T1 construct: A tissue homogenate of SK-N-MC cell membrane was used as a receptor source; host or cells: SK-N-MC (membrane preparation)

[9] = male, other: intranasal, IN@2 mg/kg

Row | SMILES | half-life at 1 µM [1] [min] | microsomal CLint at 1 µM [1] [µL/min/mg] | % remaining (60 min) [1] [%] | half-life at 1 µM [2] [min] | microsomal CLint at 1 µM [2] [µL/min/mg] | % remaining (60 min) [2] [%] | half-life at 1 µM [3] [min] | % remaining (60 min) [3] [%] | fb (%) [4] [%] | fb (%) [5] [%] | fb (%) [6] [%] | blood flow inhibition rate (Mean) [8] [%] | microsomal CLint at 1 µM [3] [µL/min/mg] | Apparent clearance CL ([7]; IV@1 mg/kg) [mL/min/kg] | AUC ([7]; male, IV@1 mg/kg) [ng·h/mL] | half-life ([7]; male, IV@1 mg/kg) [min] | Vd ([7]; male, IV@1 mg/kg) [L/kg] | AUC [7, 9] [ng·h/mL] | bioavailability [7, 9] [%] | Cmax [7, 9] [ng/mL] | further results
1 | Cc1cc(C[C@@H](NC(=O)N2CCC(c3cc4c([nH]c3=O)SCCC4)CC2)C(=O)N2CCN(C3CCN(C)CC3)CC2)cc2cn[nH]c12 [Example 6, (R)-N-(3-(7-methyl-1H-indazole-5-yl)-1-(4-(1-methylpiperidine-4-yl)piperazine-1-yl)-1-oxopropan-2-yl)-4-(7-oxo-3,4,7,8-tetrahydro-2H-thiopyrano[2,3-b]pyridine-6-yl)piperidine-1-for mamide] | > 120 | 2.4 | 91.5 | > 120 | 0.8 | 96.9 | > 120 | 131 | 90.0 | 61.3 | 76.7 | 355.3 |  |  |  |  |  |  |  |  | AUC ([7]; IN@2 mg/kg): 2400 ng·h/mL; bioavailability ([7]; IN@2 mg/kg): 20.1%; half-life ([7]; IN@2 mg/kg): 228 min; AUC ([7]; IV@1 mg/kg): 5990 ng·h/mL; half-life ([7]; IV@1 mg/kg): 151 min; Vd ([7]; IV@1 mg/kg): 0.29 L/kg
2 | Cc1cc(C[C@@H](NC(=O)N2CCC(c3cc4c([nH]c3=O)SCC4)CC2)C(=O)N2CCN(C3CCN(C)CC3)CC2)cc2cn[nH]c12 [Example 8, (R)-N-(3-(7-methyl-1H-indazole-5-yl)-1-(4-(1-methylpiperidine-4-yl)piperazine-1-yl)-1-oxopropan-2-yl)-4-(6-oxo-2,3,6,7-tetrahydrothieno[2,3-b]pyridine-5-yl)piperidine-1-formamide] | > 120 | 1.6 | 90.7 | 88.8 | 15.6 | 61.6 | > 120 | 85.8 | 69.4 | 47.7 | 64.1 |  | 3.2 | 5.94 | 2850 | 455 | 0.5 | 626 | 11 | 204 | half-life [7, 9]: 205 min
3 | [2H]C([2H])([2H])N1CCC(N2CCN(C(=O)[C@@H](Cc3cc(C)c4[nH]ncc4c3)NC(=O)N3CCC(c4cc5c([nH]c4=O)SCC5)CC3)CC2)CC1 [Example 29, (R)-N-(3-(7-methyl-1H-indazole-5-yl)-1-(4-(1-(methyl-d3)piperidine-4-yl)piperazine-1-yl)-1-oxopropan-2-yl)-4-(6-oxo-2,3,6,7-tetrahydrothieno[2,3-b]pyridine-5-yl)piperidine-1-formamide] |  |  | 105 |  |  | 98.9 |  | 115 | 64.3 | 56.1 | 50.2 |  |  |  |  |  |  |  |  |  | 
4 | Cc1cc(C[C@@H](NC(=O)N2CCC(c3cc4ccccc4[nH]c3=O)CC2)C(=O)N2CCN(C3CCN(C)CC3)CC2)cc2cn[nH]c12 [Zavegepant, zavegepant, reference compound] | > 120 | 2.8 | 95.5 | 107 | 13 | 72.1 | 66.6 | 57.5 | 92.7 | 78.5 | 82.0 | 89.7 | 20.8 | 4.59 | 3620 | 155 | 0.35 | 385 | 5.31 | 645 | pKi (CGRP receptor): 10.30; half-life [7, 9]: 64.8 min
